Source: US20040006103A1, “Use of chloroquine, hydroxychloroquine and 4 amino-quinolinic derivatives to obtain a drug for the anti retroviral therapy, active towards HIV sensitive strains and towards HIV strains which are resistant to both nucleosidic and non-nucleosidic reverse transcriptase inhibitors and to proteases …” (VALPHARMA S.A., priority 2002, published 2004)
Like-named read-outs stand apart in the source and are kept apart here.

Columns and labels:
[1] = test system: HIV-1 clinical isolated, characterised by mutations on the protease gene inducing geno-phenotypic resistance to NFV; experiment: p24 production susceptibility test, Table 10, H-9 cells; type: cell-based; conditions: for S.I. CQ / Fen. CQ (fold): H-9; for S.I. CQ: I.C.50/E.C.50; for Fen. CQ (fold): ratio to HIV-IIIB; for EC50: Human immunodeficiency virus 1, H9, H-9, read-out: E.C.50 CQ
Description: (§1) For the phenotype of the nucleosidic, non-nucleosidic and proteases inhibitors was utilised a method which consider the use of human PBMC and the protocol standardised by the AIDS Clinical Trials Group, after verifying the genotype by sequence analysis.
(§2) In order to assay in vitro the susceptibility to chloroquine and hydroxychloroquine of the viral strains, it was used the protocol of the ACTG which is characterised by the measure, of the production of antigen p24 in strongly infected cells.
(§3) The susceptibility of the viral strains to chemotherapics was determined in cell cultures, prepared in 96 wells microplates, using, for the infection, 0.1 MOI.
(§4) The supernatant of the infected cultures (either in absence or in presence of different concentrations of chemotherapic) were tested for the production of p24 after 7 days, using an ELISA test which is commercially available.
(§5) The concentrations of chloroquine and hydroxychloroquine tested ranged from 0.5 to 15 uM. At the same time non-infected cells were incubated with concentrations of chloroquine and hydroxychloroquine ranging from 0 to 50 uM to evaluate the toxicity of the compound.
(§6) After 4 day from the infection, half the cellular medium was replaced with a medium containing the corresponding dilution of chloroquine and hydroxychloroquine. The percentage of inhibition of the HIV replication, induced by chloroquine and hydroxychloroquine, was determined, after 7 day from the infection, comparing the levels of p24 of this cultures and that of the control, infected and not treated with chloroquine and hydroxychloroquine.
(§7) Therefore, the E.C.50 of chloroquine and hydroxychloroquine expresses the concentration of chemotherapic that inhibits the 50% of production of p24 and the values were calculated using linear and non linear regression analysis (the significativity for the non linear regression was R^2>0.95).
(§8) In the same experimental conditions and in the same day, but with similar concentrations of chloroquine and hydroxychloroquine, it was evaluated the vitality of the infect cell cultures, and this was expressed as I.C.50.
(§9) I.C.50 (Inhibitory Concentration) indicates the concentration of the chemotherapic agent inhibiting the vitality of the cell cultures at a rate of 50%, when there is not infection.

[2] = test system: HIV clinical isolated, characterised by mutations in the RT gene inducing geno-phenotypic resistance to AZT; experiment: p24 production susceptibility test (ACTG protocol), Table 1; type: cell-based, HIV-1; conditions: for EC50: Human immunodeficiency virus 1, PBMC; for S.I. CQ: I.C.50/E.C.50; for CQ (fold): ratio to HIV-IIIB
Description: as §1, §2, §3, §4, §5, §6, §7, §8, §9

[3] = test system: HIV-1 strains geno-phenotypically resistant to NVP; experiment: p24 production susceptibility test, Table 6, MT-2 cells; type: cell-based; conditions: for EC50: Human immunodeficiency virus 1, MT2, MT-2, read-out: E.C.50 CQ; for S.I. CQ / Fen. CQ (fold): MT-2; for S.I. CQ: I.C.50/E.C.50; for Fen. CQ (fold): ratio to HIV-IIIB
Description: as §1, §2, §3, §4, §5, §6, §7, §8, §9

[4] = test system: viruses resistant to both reverse transcriptase and protease inhibitors; experiment: p24 production susceptibility test, summary for resistant viruses; type: cell-based, HIV-1; conditions: Human immunodeficiency virus 1, range
Method: as §2, §3
The supernatant of the infected cultures (either in absence or in presence of different concentrations of chemotherapic) were tested for the production of p24 after 7 days, using an ELISA test which is commercially available. […]
as §6, §7

[5] = test system: HIV-1 clinical isolated, characterised by mutations in the RT gene inducing geno-phenotypic resistance to ABC; experiment: p24 production susceptibility test (ACTG protocol), Table 5; type: cell-based; conditions: for EC50: Human immunodeficiency virus 1, PBMC, read-out: E.C.50 CQ; for S.I. CQ / Fen. CQ (fold): PBMC; for S.I. CQ: I.C.50/E.C.50; for Fen. CQ (fold): ratio to HIV-IIIB
Description: as §1, §2, §3, §4, §5, §6, §7, §8, §9

[6] = test system: HIV-1 clinical isolated, characterised by mutations on the protease gene inducing geno-phenotypic resistance to NFV; experiment: p24 production susceptibility test (ACTG protocol), Table 10, PBMC; type: cell-based; conditions: for S.I. CQ: I.C.50/E.C.50; for Fen. CQ (fold): ratio to HIV-IIIB; for EC50: Human immunodeficiency virus 1, PBMC, read-out: E.C.50 CQ
Description: as §1, §2, §3, §4, §5, §6, §7, §8, §9

[7] = test system: HIV-1 strains geno-phenotypically resistant to EFV; experiment: p24 production susceptibility test, Table 7, MT-2 cells; type: cell-based; conditions: for EC50: Human immunodeficiency virus 1, MT2, MT-2, read-out: E.C.50 CQ; for S.I. CQ / Fen. CQ (fold): MT-2; for S.I. CQ: I.C.50/E.C.50; for Fen. CQ (fold): ratio to HIV-IIIB
Description: as §1, §2, §3, §4, §5, §6, §7, §8, §9

[8] = PBMC, Gen. D67N K70R T215F K219Q
[9] = PBMC, Gen. D 67 Ns K 70N T215F K219Q
[10] = PBMC, Gen. M41I M184V L210W R221K T215Y
[11] = PBMC, Gen. M41L D67N K70RM 184V T215F
[12] = PBMC, Gen. M41LD 76N K70R T215Y
[13] = Gen. K65R S68G F77L Y115F Q151M M184V
[14] = Gen. M41L D67N M184V L210W T215Y

## CCN(CC)CCCC(C)Nc1ccnc2cc(Cl)ccc12 (stereo not shown) [CQ, chloroquine]
[1]; Gen. D30N
  S.I. CQ: 4.2
  Fen. CQ (fold): 1.3X fold
  EC50: 2500 nM
[1]; Gen. V82A
  S.I. CQ: 5
  Fen. CQ (fold): 1.5X fold
  EC50: 2700 nM
[2]; PBMC, Gen. D67N K70R T215F K219Q, read-out: E.C.50 CQ
  EC50: 2 µM
[2]; PBMC, Gen. D 67 Ns K 70N T215F K219Q, read-out: E.C.50 CQ
  EC50: 3 µM
[2]; PBMC, Gen. K70R T215F K219Q, read-out: E.C.50 CQ
  EC50: 1.8 µM
[2]; PBMC, Gen. M41I M184V L210W R221K T215Y, read-out: E.C.50 CQ
  EC50: 1.5 µM
[2]; PBMC, Gen. M41I T215Y, read-out: E.C.50 CQ
  EC50: 2 µM
[2]; PBMC, Gen. M41L D67N K70RM 184V T215F, read-out: E.C.50 CQ
  EC50: 2.5 µM
[2]; read-out: E.C.50 CQ (uM), PBMC, Gen. M41LD 76N K70R T215Y
  EC50: 3 µM
[2]; [8]
  S.I. CQ: 4
  CQ (fold): 1.1X fold
[2]; [9]
  S.I. CQ: 3
  CQ (fold): 2X fold
[2]; PBMC, Gen. K70R T215F K219Q
  S.I. CQ: 5.5
  CQ (fold): 1.1X fold
[2]; [10]
  S.I. CQ: 6
  CQ (fold): 0.8X fold
[2]; PBMC, Gen. M41I T215Y
  S.I. CQ: 4
  CQ (fold): 1.1X fold
[2]; [11]
  S.I. CQ: 3.6
  CQ (fold): 1.3X fold
[2]; [12]
  S.I. CQ: 3.2
  CQ (fold): 1.6X fold
[3]; Gen. G190E
  EC50: 3.5 µM
  S.I. CQ: 6
  Fen. CQ (fold): 1.9X fold
[3]; Gen. K103N
  EC50: 3.2 µM
  S.I. CQ: 6.2
  Fen. CQ (fold): 1.7X fold
[3]; Gen. V106A
  EC50: 2.8 µM
  S.I. CQ: 7.8
  Fen. CQ (fold): 1.5X fold
[3]; Gen. Y181C
  EC50: 3.8 µM
  S.I. CQ: 6
  Fen. CQ (fold): 2.1X fold
[4]
  EC50: 1500 to 3500 nM
[5]; Gen. K65R L74V M184V
  EC50: 1800 nM
  S.I. CQ: 5.5
  Fen. CQ (fold): 1.2X fold
[5]; [13]
  EC50: 2500 nM
  S.I. CQ: 3.6
  Fen. CQ (fold): 1.6X fold
[5]; Gen. L74V M184F
  EC50: 1800 nM
  S.I. CQ: 5.5
  Fen. CQ (fold): 1.2X fold
[5]; Gen. L74V Y115F M184V
  EC50: 2200 nM
  S.I. CQ: 4
  Fen. CQ (fold): 1.2X fold
[5]; [14]
  EC50: 2200 nM
  S.I. CQ: 4
  Fen. CQ (fold): 1.4X fold
[6]; Gen. D30N A71V
  S.I. CQ: 5.5
  Fen. CQ (fold): 1X fold
  EC50: 1800 nM
[6]; Gen. D30N M46V A71V
  S.I. CQ: 4
  Fen. CQ (fold): 1.2X fold
  EC50: 2200 nM
[6]; Gen. G48V V92A
  S.I. CQ: 3.2
  Fen. CQ (fold): 1.6X fold
  EC50: 3000 nM
[6]; Gen. V82F L90M
  S.I. CQ: 3.4
  Fen. CQ (fold): 1.5X fold
  EC50: 2800 nM
[7]; Gen. K101D K103N
  EC50: 2800 nM
  S.I. CQ: 7.8
  Fen. CQ (fold): 1.8X fold
[7]; Gen. K103N V108D
  EC50: 2200 nM
  S.I. CQ: 6.8
  Fen. CQ (fold): 1.4X fold
[7]; Gen. K103N Y181C
  EC50: 2500 nM
  S.I. CQ: 8
  Fen. CQ (fold): 1.6X fold
[7]; Gen. K103N
  EC50: 2200 nM
  S.I. CQ: 8.5
  Fen. CQ (fold): 1.4X fold
[7]; Gen. L100I K103N
  EC50: 3200 nM
  S.I. CQ: 6.2
  Fen. CQ (fold): 2.1X fold
[7]; Gen. Y181C
  EC50: 1800 nM
  S.I. CQ: 8.5
  Fen. CQ (fold): 1.2X fold
